Test results reported in patent EP0542807B1, “USE OF 2-PHENYL-1,2-BENZISOSELENAZOL-3(2H)-ONE” (RHONE-POULENC RORER GMBH, priority 1990, dated 1992).

Columns and labels:
Prima breast tumor cells = assay: Nephrotoxicity and antitumor activity in mice inoculated with Prima breast tumor cells; format: in vivo, BALB/c mice; details: for T/C Day 15: T/C = mean tumor weight treated/control mice; for Incidence of tumors Day 8: by palpation
From the text: (§1) Tumors. MPC 11 tumor cells were obtained from the institute of Pathology, University of Utrecht, The Netherlands. The MPC 11 tumor originated as a plasmacytoma, and was originally obtained from Dr. D. Catty, Birmingham, United Kingdom. The tumor cells were maintained by weekly passages in BALB/c mice. Freshly harvested ascitic cells were used in the experiments. Cells were counted with a hemocytometer. Transplantable Prima mammary tumor cells were obtained from the Radiobiological Institute TNO, Rijswijk, The Netherlands. The Prima tumor originated as a mammary carcinoma, induced by forced breeding in BALB/c mice bearing murine mammary tumor virus. The Prima tumor cell-line was cultured in vitro in standard Dulbecco's modification of Minimal Essential Medium (Gibco, Paisley, United Kingdom), supplemented with L-glutamine (500 mg/l), 2-mercapto-ethanol (60 umol/l) and 10% fetal calf serum (Flow Laboratories, Zwanenburg, The Netherlands).
(§2) Laboratory Animals. Female BALB/c mice were obtained from the Central Institute for the Breeding of Laboratory Animals/Harlan Sprague-Dawley (CPB/HSD), Zeist, The Netherlands. The mice were 8 weeks of age and weighed 18-20 g at the start of the experiments. All animals were provided with standard laboratory food (SRMA chow, Hope Farms, Woerden, The Netherlands) and water ad libitum.
(§3) Treatment. Animals were divided at random into groups of 8. […] Ebselen was dissolved in f a mixture of dimethylsulfoxide/polyethyleneglycol/physiological saline (1/4/20) and administered i.p. in a volume of 0.6 ml.
Control groups were treated with ebselen or the vehicle. The occurrance of tumors was examined daily by palpation. The experiments were terminated on Day 15 when the tumors were excised and weighed.
(§4) Statistics. Student's test, unpaired, was used to evaluate the significance of differences between experimental groups. The level of significance was set at P < 0.05.

LLC-PK1 cells = assay: In-vitro toxicity of cisplatin in LLC-PK1 cells (LDH-leakage, protein remaining attached to the culture plate); format: cell-based, porcine
Procedure: LLC-PK1 are porcine kidney cells which express many characteristics of proximal tubule epithelium. […] In this cell line the LDH-leakage can be used as criterium for cell toxicity.
Cells were seeded in 24 well culture dishes ([…]) and allowed to grow to confluence (2.4 x 10^5 cell/cm^2) over 8 days in serum containing 5 % fetal calf serum. The cells were then maintained in serum-free medium for 2 days before drug treatment. Only monolayers in which dome formation occurred were used for the experiments.
Ebselen was dissolved in 2% dimethylsulfoxide in the sterile salt solution.
After incubation, the monolayers were washed 3 times with physiological saline to remove residual drug. Subsequently, the cells were grown in medium containing 5% fetal calf serum. Cell viability was assessed at different timepoints. In control experiments, monolayers were exposed to the vehicle in stead of drugs.
In control experiments, ebselen was replaced by the vehicle.

MPC 11 tumor cells = assay: Nephrotoxicity and antitumor activity in mice inoculated with MPC 11 tumor cells; format: in vivo, BALB/c mice; details: for T/C: T/C=MST treated/ MST control
From the text: as §1, §2, §3
Evaluation of Antitumor Activity. […] Control groups were treated with ebselen or the vehicle. Mice were examined daily for occurrence of tumors. The experiments were terminated on Day 42 and median survival times (MSTs) were calculated.
as §4

[1] = Histology of kidneys and retroperitoneal ganglionic tissue; format: in vivo, BALB/c mice; details: cisplatin alone versus cisplatin and ebselen given 1 h before
Procedure: Histology. Mice were sacrificed four days after treatment with cisplatin alone or Ebselen and cisplatin. Control groups were treated with Ebselen alone or the vehicle. Kidneys and livers were removed and processed for light microscopy. Sections of 6 um thickness were cut and stained in hematoxylin : eosin. All slides were examined without prior knowledge of the treatment given to the animal from which the specimen under investigation was taken.

[2] = Acute toxicity (LD0) in mice; format: in vivo; details: acute investigations
Procedure: (§5) Since, in contrast to the previously known and applied selenium compounds, Ebselen is low in toxicity (LD0 > 1000 mg/kg body weight in acute investigations in mice and rats) and the maximum doses to be administered lie greatly below this value, administration to patients can be regarded as being without danger.

[3] = Acute toxicity (LD0) in rats; format: in vivo; details: acute investigations
Procedure: as §5

[4] = Cisplatin-induced nephrotoxicity in mice (kidney function: BUN, serum creatinine); format: in vivo, BALB/c mice; details: for Effect on cisplatin-induced increase of BUN and serum creatinine: Day 4
Procedure: as §2, §3
Kidney Function. […] Blood samples were obtained from the retroorbital venous plexus in the mice.
as §4

[5] = set-up: species or system BALB/c mice; details: mouse, in vivo
Procedure: Kidney Function. […] Blood samples were obtained from the retroorbital venous plexus in the mice. Serum creatinine and BUN were measured daily in pilot studies (data not shown) and in more extensive studies at the time of maximally observed toxicity : Day 4.
Liver Function. […] Control groups were treated with ebselen or the vehicle.

[6] = Cisplatin 11.5 mg/kg alone, n=8

## N.N.[Cl][Pt][Cl] [Cisplatin]
Prima breast tumor cells; Cisplatin 6.5 mg/kg alone
  T/C Day 15: 93%
  Incidence of tumors Day 8: 100%
Prima breast tumor cells; Cisplatin 6.5 mg/kg alone, n=8
  Mean tumor weight Day 15: 1.4 ± 0.2 g
Prima breast tumor cells; Cisplatin 9.0 mg/kg alone
  T/C Day 15: 47%
  Incidence of tumors Day 8: 0%
Prima breast tumor cells; Cisplatin 9.0 mg/kg alone, n=8
  Mean tumor weight Day 15: 0.7 ± 0.4 g
Prima breast tumor cells; Cisplatin 11.5 mg/kg alone
  T/C Day 15: 28%
  Incidence of tumors Day 8: 0%
Prima breast tumor cells; [6]
  Mean tumor weight Day 15: 0.42 ± 0.08 g
Prima breast tumor cells; Cisplatin 14.5 mg/kg alone
  T/C Day 15: 7%
  Incidence of tumors Day 8: 0%
Prima breast tumor cells; cisplatin 9.0 and 11.5 mg/kg
  Efficacy against the Prima mammary tumor: effective
Prima breast tumor cells; cisplatin […] alone, n=8
  Mice with tumors as assessed by palpation on Day 7: None
LLC-PK1 cells; cisplatin 0.4 mM for 1 h, time after termination of the incubation
  Time at which decrease in cell viability was first observed: 24 h
MPC 11 tumor cells; Cisplatin 4.0 mg/kg alone
  T/C: 150%
MPC 11 tumor cells; Cisplatin 4.0 mg/kg alone, n=8
  Incidence of tumors Day 7: 100%
  MST: 24 ± 4 days
MPC 11 tumor cells; Cisplatin 6.5 mg/kg alone
  T/C: 181%
MPC 11 tumor cells; Cisplatin 6.5 mg/kg alone, n=8
  Incidence of tumors Day 7: 100%
  MST: 29 ± 4 days
MPC 11 tumor cells; Cisplatin 9.0 mg/kg alone
  T/C: >300%
MPC 11 tumor cells; Cisplatin 9.0 mg/kg alone, n=8
  Incidence of tumors Day 7: 0%
  MST: >30 days
MPC 11 tumor cells; Cisplatin 11.5 mg/kg alone
  T/C: >300%
MPC 11 tumor cells; [6]
  Incidence of tumors Day 7: 0%
  MST: >48 days
MPC 11 tumor cells; Cisplatin 14.5 mg/kg alone, n=8
  Incidence of tumors Day 7: 0%
[1]
  Damage to retroperitoneal ganglionic cells: more pronounced

## O=c1c2ccccc2[se]n1-c1ccccc1 [Ebselen, 2-phenyl-1,2-benzisoselenazol-3(2H)-one]
Prima breast tumor cells; Ebselen 10 mg/kg 1 h before cisplatin
  Influence on the antitumor activity of cisplatin: did not reduce the antitumor activity of cisplatin
Prima breast tumor cells; Ebselen 10 mg/kg alone
  Efficacy against the Prima tumor: not effective
Prima breast tumor cells; Ebselen 10.0 mg/kg alone
  T/C Day 15: 100%
  Incidence of tumors Day 8: 100%
Prima breast tumor cells; Ebselen 10.0 mg/kg alone, n=8
  Mean tumor weight Day 15: 1.5 ± 0.4 g
  Survival Day 8: 100%
[2]
  LD0: > 1000 mg/kg body weight
[3]
  LD0: > 1000 mg/kg body weight
LLC-PK1 cells; 10 uM Ebselen 1 h, then 0.4 mM cisplatin 1 h, whole period up till 72 h
  Cell viability versus cells not pre-exposed (time course): significantly higher
LLC-PK1 cells; pre-incubation 1 h before cisplatin, concentration-dependent
  Ebselen concentration of highest protection: 15 µM
LLC-PK1 cells; pre-incubation with Ebselen 5-15 uM for 1 h, then 0.2 or 0.4 mM cisplatin 1 h, t = 72 h
  Protection from cisplatin-induced decrease in viability: protected the cells from a decrease in viability
LLC-PK1 cells; pre-incubation with ebselen, cisplatin 0.8 mM for 1 h
  Protection from cisplatin-induced decrease in viability: could not protect the cells against the decrease in viability
[4]; Ebselen 1 h before cisplatin 11.5 to 19.0 mg/kg
  Effect on cisplatin-induced increase of BUN and serum creatinine: prevented the increase in levels of BUN and serum creatinine at all cisplatin doses tested with exception of the highest dose
[4]; cisplatin 14.5 mg/kg, ebselen i.p. 1 h before
  Ebselen dose of maximal protection against cisplatin-induced nephrotoxicity: 10.0 mg/kg
[4]; ebselen 1 h after cisplatin
  Effect on cisplatin-induced increase of BUN and serum creatinine: a protective effect against cisplatin-induced elevations of the levels of BUN and serum creatinine was also observed, but less marked
MPC 11 tumor cells; Ebselen 10.0 mg/kg alone
  T/C: 106%
MPC 11 tumor cells; Ebselen 10.0 mg/kg alone, n=8
  Incidence of tumors Day 7: 100%
  MST: 17 ± 2 days
  Survival Day 7: 100%
MPC 11 tumor cells; MPC 11 plasmacytoma, ebselen i.p. 1 h prior to cisplatin
  Influence on the antitumor activity of cisplatin: did not reduce the antitumor activity of cisplatin
MPC 11 tumor cells; ebselen alone
  MST versus vehicle control: identical to that of the control group
[5]
  Functional liver- or kidney-damage: did not cause functional liver- or kidney-damage
